According to patent publication US8829034B2, “Compounds which modulate the CB2 receptor” (Boehringer Ingerlheim International GmbH, priority 2006, dated 2014):

Target: T1, human CB2R (Homo sapiens, UniProt P34972)
T1 construct: host or cells: CHO cells
Assay: CB2R mediated modulation of cAMP synthesis
Format: cell-based
Details: for agonistic activity: found through the use of the above described assays
In short: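 CHO cells expressing human CB2R were treated with compound for 30 min at 37 °C in buffer containing 1 mM IBMX, 0.25% BSA and 10 uM forskolin. cAMP was measured after lysis. EC50 was taken as 50% inhibition of forskolin-stimulated cAMP, with 100% defined by 1 uM CP55940, using a four-parameter logistic fit.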

T1 sequence (P34972 whole entry): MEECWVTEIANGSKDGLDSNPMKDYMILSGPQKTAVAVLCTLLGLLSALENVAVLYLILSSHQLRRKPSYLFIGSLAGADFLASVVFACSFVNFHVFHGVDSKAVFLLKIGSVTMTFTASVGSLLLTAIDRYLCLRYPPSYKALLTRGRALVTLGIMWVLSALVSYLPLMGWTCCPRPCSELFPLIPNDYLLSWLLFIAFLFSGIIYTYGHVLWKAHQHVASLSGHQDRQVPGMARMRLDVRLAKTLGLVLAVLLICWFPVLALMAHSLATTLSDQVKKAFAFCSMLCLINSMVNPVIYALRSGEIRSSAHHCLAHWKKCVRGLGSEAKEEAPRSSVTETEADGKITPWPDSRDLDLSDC

Row | Structure (SMILES) | agonistic activity | EC50
1 | CC(C)c1cc(NC(=O)C(C)(C)S(=O)(=O)CC2CCOCC2)n(C)n1 [N-(5-Isopropyl-2-methyl-2H-pyrazol-3-yl)-2-methyl-2-(tetrahydro-pyran-4-ylmethanesulfonyl)-propionamide] | agonistic activity | –
2 | CC(C)(C)c1nnc(NC(=O)C(C)(C)S(=O)(=O)C2CCCC2)s1 [N-(5-tert-Butyl-1,3,4-thiadiazol-2-yl)-2-cyclopentanesulfonyl-2-methyl-propionamide] | agonistic activity | 0.0186 µM
3 | Cn1nc(C(C)(C)C)cc1NC(=O)C(C)(C)S(=O)(=O)CC(C)(C)C [N-(5-tert-Butyl-2-methyl-2H-pyrazol-3-yl)-2-(2,2-dimethyl-propane-1-sulfonyl)-2-methyl-propionamide] | agonistic activity | –
4 | CCCC(CC)S(=O)(=O)C(C)(C)C(=O)Nc1cc(C(C)(C)C)nn1C (centres unmarked) [N-(5-tert-Butyl-2-methyl-2H-pyrazol-3-yl)-2-(hexane-3-sulfonyl)-2-methyl-propionamide] | agonistic activity | –
5 | Cn1nc(C(C)(C)C)cc1NC(=O)C(C)(C)S(=O)(=O)CC1CCC1 [N-(5-tert-Butyl-2-methyl-2H-pyrazol-3-yl)-2-cyclobutylmethanesulfonyl-2-methyl-propionamide] | agonistic activity | 0.033 µM
6 | Cn1nc(C(C)(C)C)cc1NC(=O)C(C)(C)S(=O)(=O)C1CCCCCC1 [N-(5-tert-Butyl-2-methyl-2H-pyrazol-3-yl)-2-cycloheptanesulfonyl-2-methyl-propionamide] | agonistic activity | 0.0065 µM
7 | Cn1nc(C(C)(C)C)cc1NC(=O)C(C)(C)S(=O)(=O)CC1CCCCC1 [N-(5-tert-Butyl-2-methyl-2H-pyrazol-3-yl)-2-cyclohexylmethanesulfonyl-2-methyl-propionamide] | agonistic activity | 0.0238 µM
8 | Cn1nc(C(C)(C)C)cc1NC(=O)C(C)(C)S(=O)(=O)C1CCCC1 [N-(5-tert-Butyl-2-methyl-2H-pyrazol-3-yl)-2-cyclopentanesulfonyl-2-methyl-propionamide] | agonistic activity | –
9 | CCS(=O)(=O)C(C)(C)C(=O)Nc1cc(C(C)(C)C)nn1C [N-(5-tert-Butyl-2-methyl-2H-pyrazol-3-yl)-2-ethanesulfonyl-2-methyl-propionamide] | agonistic activity | –
10 | Cn1nc(C(C)(C)C)cc1NC(=O)C(C)(C)S(C)(=O)=O [N-(5-tert-Butyl-2-methyl-2H-pyrazol-3-yl)-2-methanesulfonyl-2-methyl-propionamide] | agonistic activity | –
11 | Cn1nc(C(C)(C)C)cc1NC(=O)C(C)(C)S(=O)(=O)C(C)(C)C [N-(5-tert-Butyl-2-methyl-2H-pyrazol-3-yl)-2-methyl-2-(2-methyl-propane-2-sulfonyl)-propionamide] | agonistic activity | –
12 | CC(C)CCS(=O)(=O)C(C)(C)C(=O)Nc1cc(C(C)(C)C)nn1C [N-(5-tert-Butyl-2-methyl-2H-pyrazol-3-yl)-2-methyl-2-(3-methyl-butane-1-sulfonyl)-propionamide] | agonistic activity | 0.0154 µM
13 | Cn1nc(C(C)(C)C)cc1NC(=O)C(C)(C)S(=O)(=O)C[C@H]1CCC(=O)N1 [N-(5-tert-Butyl-2-methyl-2H-pyrazol-3-yl)-2-methyl-2-((R)-5-oxo-pyrrolidin-2-ylmethanesulfonyl)-propionamide] | agonistic activity | –
14 | Cn1nc(C(C)(C)C)cc1NC(=O)C(C)(C)S(=O)(=O)C[C@@H]1CCC(=O)N1 [N-(5-tert-Butyl-2-methyl-2H-pyrazol-3-yl)-2-methyl-2-((S)-5-oxo-pyrrolidin-2-ylmethanesulfonyl)-propionamide] | agonistic activity | –
15 | CCCS(=O)(=O)C(C)(C)C(=O)Nc1cc(C(C)(C)C)nn1C [N-(5-tert-Butyl-2-methyl-2H-pyrazol-3-yl)-2-methyl-2-(propane-1-sulfonyl)-propionamide] | agonistic activity | –
16 | CC(C)S(=O)(=O)C(C)(C)C(=O)Nc1cc(C(C)(C)C)nn1C [N-(5-tert-Butyl-2-methyl-2H-pyrazol-3-yl)-2-methyl-2-(propane-2-sulfonyl)-propionamide] | agonistic activity | –
17 | Cn1nc(C(C)(C)C)cc1NC(=O)C(C)(C)S(=O)(=O)CC1CCCO1 (centres unmarked) [N-(5-tert-Butyl-2-methyl-2H-pyrazol-3-yl)-2-methyl-2-(tetrahydro-furan-2-ylmethanesulfonyl)-propionamide] | agonistic activity | –
18 | Cn1nc(C(C)(C)C)cc1NC(=O)C(C)(C)S(=O)(=O)CC1CCCCO1 (centres unmarked) [N-(5-tert-Butyl-2-methyl-2H-pyrazol-3-yl)-2-methyl-2-(tetrahydro-pyran-2-ylmethanesulfonyl)-propionamide] | agonistic activity | –
19 | Cn1nc(C(C)(C)C)cc1NC(=O)C(C)(C)S(=O)(=O)C1CCOCC1 [N-(5-tert-Butyl-2-methyl-2H-pyrazol-3-yl)-2-methyl-2-(tetrahydro-pyran-4-sulfonyl)-propionamide] | agonistic activity | –
20 | Cn1nc(C(C)(C)C)cc1NC(=O)C(C)(C)S(=O)(=O)CC1CCOCC1 [N-(5-tert-Butyl-2-methyl-2H-pyrazol-3-yl)-2-methyl-2-(tetrahydro-pyran-4-ylmethanesulfonyl)-propionamide] | agonistic activity | –
21 | Cc1nc(NC(=O)C(C)(C)S(=O)(=O)Cc2ccc(Cl)cc2)sc1C(C)(C)C [N-(5-tert-Butyl-4-methyl-thiazol-2-yl)-2-(4-chloro-phenylmethanesulfonyl)-2-methyl-propionamide] | agonistic activity | 0.0121 µM
22 | Cc1nc(NC(=O)C(C)(C)S(=O)(=O)C(C)(C)C)sc1C(C)(C)C [N-(5-tert-Butyl-4-methyl-thiazol-2-yl)-2-methyl-2-(2-methyl-propane-2-sulfonyl)-propionamide] | agonistic activity | 0.0107 µM
23 | CCCS(=O)(=O)C(C)(C)C(=O)Nc1nc(C)c(C(C)(C)C)s1 [N-(5-tert-Butyl-4-methyl-thiazol-2-yl)-2-methyl-2-(propane-1-sulfonyl)-propionamide] | agonistic activity | 0.0072 µM
24 | Cc1nc(NC(=O)C(C)(C)S(=O)(=O)C(C)C)sc1C(C)(C)C [N-(5-tert-Butyl-4-methyl-thiazol-2-yl)-2-methyl-2-(propane-2-sulfonyl)-propionamide] | agonistic activity | 0.0258 µM
25 | Cc1nc(NC(=O)C(C)(C)S(=O)(=O)C2CCOCC2)sc1C(C)(C)C [N-(5-tert-Butyl-4-methyl-thiazol-2-yl)-2-methyl-2-(tetrahydro-pyran-4-sulfonyl)-propionamide] | agonistic activity | 0.0003 µM
26 | Cc1nc(NC(=O)C(C)(C)S(=O)(=O)CC2CCOCC2)sc1C(C)(C)C [N-(5-tert-Butyl-4-methyl-thiazol-2-yl)-2-methyl-2-(tetrahydro-pyran-4-ylmethanesulfonyl)-propionamide] | agonistic activity | 0.0002 µM
27 | Cc1nc(NC(=O)C(C(C)C)S(=O)(=O)C(C)C)sc1C(C)(C)C (centres unmarked) [N-(5-tert-Butyl-4-methyl-thiazol-2-yl)-3-methyl-2-(propane-2-sulfonyl)-butyramide] | agonistic activity | –
